Experimental data as given in PubChem BioAssay AID292 (DTP/NCI, 2004).
Several values for one entry are separate records, joined by “and”; a condition that tells them apart may be missing. Identical values can stand only once. Toxic doses and inconclusive results are not listed. Rule for the calls: active = survival T/C of 150% or more; inactive = T/C below 125% in these data.

System: B6C3F1 mice, ip Sarcoma M5076, median survival T/C
Experiment: NCI In Vivo Anticancer Drug Screen. Data for tumor model Sarcoma M5076 (intraperitoneal) in B6C3F1 mice
Settings: endpoint: median survival time, higher = longer survival
How it was run: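 Antitumour effect is judged in tumour-bearing mice by comparing survival after compound dosing against vehicle-only animals, reported as T/C.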

[1] = dose: 25.0 mg/kg/injection, schedule: Q04DX004 (ip), vehicle: saline with Tween-80
[2] = dose: 50.0 mg/kg/injection, schedule: Q04DX004 (ip), vehicle: saline with Tween-80
[3] = dose: 100.0 mg/kg/injection, schedule: Q04DX004 (ip), vehicle: saline with Tween-80
[4] = dose: 200.0 mg/kg/injection, schedule: Q04DX004 (ip), vehicle: saline with Tween-80
[5] = dose: 25.0 mg/kg/injection, schedule: Q04DX004 (ip), vehicle: Klucel (hydroxypropylcellulose) (HPC)
[6] = dose: 50.0 mg/kg/injection, schedule: Q04DX004 (ip), vehicle: Klucel (hydroxypropylcellulose) (HPC)
[7] = dose: 100.0 mg/kg/injection, schedule: Q04DX004 (ip), vehicle: Klucel (hydroxypropylcellulose) (HPC)
[8] = dose: 200.0 mg/kg/injection, schedule: Q04DX004 (ip), vehicle: Klucel (hydroxypropylcellulose) (HPC)
[9] = dose: 400.0 mg/kg/injection, schedule: Q04DX004 (ip), vehicle: Klucel (hydroxypropylcellulose) (HPC)
[10] = dose: 75.0 mg/kg/injection, schedule: Q04DX004 (ip), vehicle: saline with Tween-80
[11] = dose: 150.0 mg/kg/injection, schedule: Q04DX004 (ip), vehicle: saline with Tween-80
[12] = dose: 300.0 mg/kg/injection, schedule: Q04DX004 (ip), vehicle: saline with Tween-80
[13] = dose: 600.0 mg/kg/injection, schedule: Q04DX004 (ip), vehicle: saline with Tween-80
[14] = dose: 1200.0 mg/kg/injection, schedule: Q04DX004 (ip), vehicle: saline with Tween-80
[15] = dose: 6.25 mg/kg/injection, schedule: Q04DX004 (ip), vehicle: saline with Tween-80
[16] = dose: 12.5 mg/kg/injection, schedule: Q04DX004 (ip), vehicle: saline with Tween-80

Measured: T/C

CCCCCCCC1C(=O)OC2CC3C(C)=CC(=O)C(O)C3(C)C3C4(O)OCC23C1C(C)C4O (configuration not stated)
inactive: dose: 2.5 mg/kg/injection, schedule: Q04DX004 (ip), vehicle: Klucel (hydroxypropylcellulose) (HPC) 109 % of control | dose: 5.0 mg/kg/injection, schedule: Q04DX004 (ip), vehicle: Klucel (hydroxypropylcellulose) (HPC) 108 % of control | dose: 10.0 mg/kg/injection, schedule: Q04DX004 (ip), vehicle: Klucel (hydroxypropylcellulose) (HPC) 109 % of control | dose: 20.0 mg/kg/injection, schedule: Q04DX004 (ip), vehicle: Klucel (hydroxypropylcellulose) (HPC) 106 % of control

Cc1cc2cc3cc(C)c(N)cc3nc2cc1N
inactive: [1] 110 % of control | [2] 117 % of control | [3] 113 % of control

Clc1ccc(-c2noc(CN3CCCCC3)n2)cc1
inactive: [2] 92 % of control | [3] 96 % of control | [4] 97 % of control

O=C1N(Cl)C(=O)C(c2ccc(Cl)cc2)(c2ccc(Cl)cc2)N1Cl
inactive: [1] 102 % of control | [2] 102 % of control | [3] 96 % of control

Cn1[nH]c2[nH]c(=S)sc(=S)c2c1=O
inactive: [5] 100 % of control | [6] 94 % of control | [7] 95 % of control | [8] 94 % of control | [9] 95 % of control

CNC(=O)Oc1ccc(S(=O)(=O)c2ccc(OC(=O)NC)cc2)cc1
inactive: [1] 100 % of control | [2] 96 % of control and 104 % of control | [3] 96 % of control and 97 % of control | [4] 100 % of control and 101 % of control

COC1=CC(=O)C(OC)=C(OC)C1=O
inactive: dose: 18.75 mg/kg/injection, schedule: Q04DX004 (ip), vehicle: saline with Tween-80 95 % of control | dose: 37.5 mg/kg/injection, schedule: Q04DX004 (ip), vehicle: saline with Tween-80 95 % of control | [10] 99 % of control | [11] 97 % of control | [12] 93 % of control

O=c1[nH]cnc2c1ncn2C1CC2[O][Sn]([c]3ccccc3)([c]3ccccc3)[O]CC2O1 (configuration not stated)
inactive: dose: 37.5 mg/kg/injection, schedule: Q04DX004 (ip), vehicle: distilled water + Tween-80 106 % of control | dose: 75.0 mg/kg/injection, schedule: Q04DX004 (ip), vehicle: distilled water + Tween-80 104 % of control | dose: 150.0 mg/kg/injection, schedule: Q04DX004 (ip), vehicle: distilled water + Tween-80 101 % of control | dose: 300.0 mg/kg/injection, schedule: Q04DX004 (ip), vehicle: distilled water + Tween-80 105 % of control | dose: 600.0 mg/kg/injection, schedule: Q04DX004 (ip), vehicle: distilled water + Tween-80 110 % of control

NCCNCC(O)CO (configuration not stated)
inactive: dose: 50.0 mg/kg/injection, schedule: Q04DX004 (ip), vehicle: saline 99 % of control | dose: 100.0 mg/kg/injection, schedule: Q04DX004 (ip), vehicle: saline 103 % of control | dose: 200.0 mg/kg/injection, schedule: Q04DX004 (ip), vehicle: saline 103 % of control | dose: 400.0 mg/kg/injection, schedule: Q04DX004 (ip), vehicle: saline 99 % of control | dose: 800.0 mg/kg/injection, schedule: Q04DX004 (ip), vehicle: saline 95 % of control

N#CC1C(=O)NC(=S)NC1c1ccccc1 (configuration not stated)
inactive: [6] 97 % of control | [7] 101 % of control | [8] 97 % of control | [9] 100 % of control

C=COC(=O)C(Cc1ccccc1)NC(=O)OCc1ccccc1 (configuration not stated)
inactive: [10] 91 % of control | [11] 111 % of control | [12] 113 % of control | [13] 91 % of control | [14] 88 % of control

[N-]=[N+]=CC(=O)CCC(NC(=O)OCc1ccccc1)C(=O)OCc1ccccc1 (configuration not stated)
inactive: [5] 113 % of control | [6] 115 % of control | [7] 121 % of control | [8] 121 % of control

CS(=O)(=O)OCCCCOS(C)(=O)=O
inactive: [15] 100 % of control | [16] 104 % of control

COc1cccc(Sc2ccc([N+](=O)[O-])c3no[n+]([O-])c23)c1
inactive: dose: 3.75 mg/kg/injection, schedule: Q04DX004 (ip), vehicle: saline with Tween-80 105 % of control | dose: 7.5 mg/kg/injection, schedule: Q04DX004 (ip), vehicle: saline with Tween-80 106 % of control | dose: 15.0 mg/kg/injection, schedule: Q04DX004 (ip), vehicle: saline with Tween-80 105 % of control | dose: 30.0 mg/kg/injection, schedule: Q04DX004 (ip), vehicle: saline with Tween-80 101 % of control | dose: 60.0 mg/kg/injection, schedule: Q04DX004 (ip), vehicle: saline with Tween-80 98 % of control

CC(=O)C(Cl)C(=O)c1c(C)[nH]n(-c2ccccc2)c1=O (configuration not stated)
inactive: [6] 99 % of control | [7] 113 % of control | [8] 92 % of control

Cc1ccoc1
inactive: dose: 16.8 mg/kg/injection, schedule: Q03HX012 (ip), vehicle: saline with Tween-80 101 % of control | dose: 33.3 mg/kg/injection, schedule: Q03HX012 (ip), vehicle: saline with Tween-80 93 % of control | dose: 66.6 mg/kg/injection, schedule: Q03HX012 (ip), vehicle: saline with Tween-80 96 % of control | dose: 133.3 mg/kg/injection, schedule: Q03HX012 (ip), vehicle: saline with Tween-80 100 % of control

CCCCNP1(NCCCC)=NP(NCCCC)(NCCCC)=NP(NCCCC)(NCCCC)=NP(NCCCC)(NCCCC)=N1
inactive: dose: 3.13 mg/kg/injection, schedule: Q04DX004 (ip), vehicle: saline with Tween-80 96 % of control | [15] 104 % of control | [16] 102 % of control | [1] 96 % of control | [2] 97 % of control

COc1cccc(C2NC(=S)NC(=O)C2C#N)c1 (configuration not stated)
inactive: [6] 99 % of control | [7] 99 % of control | [8] 95 % of control | [9] 97 % of control

S=C1CCCCN1
inactive: dose: 6.25 mg/kg/injection, schedule: Q04DX004 (ip), vehicle: distilled water + alcohol 101 % of control | dose: 12.5 mg/kg/injection, schedule: Q04DX004 (ip), vehicle: distilled water + alcohol 99 % of control | dose: 25.0 mg/kg/injection, schedule: Q04DX004 (ip), vehicle: distilled water + alcohol 98 % of control and 103 % of control | dose: 50.0 mg/kg/injection, schedule: Q04DX004 (ip), vehicle: distilled water + alcohol 92 % of control and 94 % of control and 100 % of control | dose: 100.0 mg/kg/injection, schedule: Q04DX004 (ip), vehicle: distilled water + alcohol 88 % of control and 100 % of control (2×)

CC(=O)Oc1ccccc1O
inactive: dose: 6.25 mg/kg/injection, schedule: Q04DX004 (ip), vehicle: saline + Tween-80 + alcohol 112 % of control | dose: 12.5 mg/kg/injection, schedule: Q04DX004 (ip), vehicle: saline + Tween-80 + alcohol 107 % of control | dose: 25.0 mg/kg/injection, schedule: Q04DX004 (ip), vehicle: saline + Tween-80 + alcohol 95 % of control | dose: 50.0 mg/kg/injection, schedule: Q04DX004 (ip), vehicle: saline + Tween-80 + alcohol 98 % of control

O=C1c2ccccc2C(=O)c2c(NCCOCCO)ccc(NCCOCCO)c21
inactive: [1] 100 % of control | [2] 103 % of control | [3] 105 % of control | [4] 102 % of control | dose: 400.0 mg/kg/injection, schedule: Q04DX004 (ip), vehicle: saline with Tween-80 99 % of control

CCC(CC)COC(=O)c1ccccc1C(=O)OCC(CC)CC
inactive: [10] 102 % of control | [11] 102 % of control | [12] 104 % of control | [13] 106 % of control | [14] 114 % of control
